Source: PMC10626578, “Designed switch from covalent to non-covalent inhibitors of carboxylesterase Notum activity” (European Journal of Medicinal Chemistry, 2023)
Counter-ions that a name gives are not always drawn. Like-named read-outs stand apart in the source and are kept apart here.

Key:
[1] = target: T1, Notum (core, 81–451C330S) (Homo sapiens, UniProt Q6P988, C330S); test: Notum-OPTS biochemical assay, Notum (81–451C330S); conditions: for IC50 / Notum IC50: >10 = 20–50% inhibition @ 10 μM; for IC50: read-out: Notum IC50; for fold decrease in Notum inhibition compared to 3a: weaker
T1 construct: high-throughput biochemical assay with Notum (81–451C330S) and OPTS as a synthetic fluorescent substrate; made in house
T1 sequence (Q6P988 81-451 C330S): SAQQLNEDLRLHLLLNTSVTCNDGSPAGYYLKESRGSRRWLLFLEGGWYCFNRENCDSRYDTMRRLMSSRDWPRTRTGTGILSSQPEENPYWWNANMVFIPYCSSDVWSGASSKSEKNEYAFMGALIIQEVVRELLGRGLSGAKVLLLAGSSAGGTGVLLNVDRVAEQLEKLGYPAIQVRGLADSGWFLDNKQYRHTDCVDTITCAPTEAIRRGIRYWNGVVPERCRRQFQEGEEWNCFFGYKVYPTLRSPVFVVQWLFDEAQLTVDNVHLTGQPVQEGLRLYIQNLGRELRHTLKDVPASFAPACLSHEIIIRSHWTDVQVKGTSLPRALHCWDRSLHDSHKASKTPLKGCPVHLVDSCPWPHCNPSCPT
Experimental: Notum inhibitors 3–5 (Table 1, Table 2, Table 3, Table 4) were either purchased or prepared using established synthetic methods from readily available starting materials (Scheme 1). Where necessary, the synthesis of many of these amines (e.g. 6) have been reported previously and full details of their preparation have been included in the Experimental Section. Notum inhibition activity was determined using the standard Notum-OPTS biochemical assay using IC50 values. These values were used to compare relative activities with covalent inhibitors under carefully regulated assay conditions. […] Selected inhibitors were screened for inhibition of Notum activity in a TCF/LEF Reporter (Luciferase) cell line with exogenous WNT3a and Notum, and soaked into Notum crystals to determine their binding modes and evidence of MoA.
Methods have been described in detail.

[2] = Stability in mouse liver microsomes; format: in vitro ADME
Experimental: Selected compounds were routinely screened for aqueous solubility in PBS (pH 7.4), transit performance in MDCK-MDR1 cell lines for permeability, and metabolic stability in MLM and HLM as a measure of clearance. The main metabolites and routes of metabolism of 4y were determined in MLM. Assay protocols and additional data are presented in the Supplementary Material (Tables S1–S7). ADME studies reported in this work were performed by WuXi AppTec (Shanghai, China).
Representative assay protocols have been described in detail. ^1,2

[3] = Table 1, mean ± s.d. of n = 2–6, inactive = <20% inhibition @ 10 μM, 2a covalent, IC50 time-dependant
[4] = Table 2, mean ± s.d. of n = 4–12
[5] = mouse, read-out: MLM Stability t1/2
[6] = Table 4, mean ± s.d. of n = 4–8

CC(=O)N1CCOc2ccccc21 [Compound 3m, 1-(2,3-Dihydro-4H-benzo[b][1,4]oxazin-4-yl)ethan-1-one]
IC50 [1, 3]: 2.8 ± 1.8 µM

CC(=O)n1cnc2ccccc21 [Compound 3l, 1-(1H-Benzo[d]imidazole-1-yl)ethan-1-one]
Notum IC50 [1, 3]: inactive ^c

CC(=O)N1CCc2c(C#N)cccc21 [Compound 4l, 1-Acetylindoline-4-carbonitrile]
IC50 [1, 4]: 1.5 ± 0.2 µM

O=C1N2c3ccccc3CC2CC1(F)F (centres unmarked) [Compound 5m, 2,2-Difluoro-1,2,9,9a-tetrahydro-3H-pyrrolo[1,2-a]indol-3-one]
half-life at 1 h [2, 5]: 16 min

CC(=O)N1CCS(=O)(=O)c2ccccc21 [Compound 3o, 1-(1,1-Dioxido-2,3-dihydro-4H-benzo[b][1,4]thiazin-4-yl)ethan-1-one]
IC50 [1, 3]: > 10 µM

CC(=O)N1CCc2cccc(Cl)c21 [Compound 4j, 1-(7-Chloroindolin-1-yl)ethan-1-one]
IC50 [1, 4]: 6.4 ± 0.9 µM

CC12CCC(=O)N1c1ccccc1C2 (centres unmarked) [Compound 5l, 3a-Methyl-3,4-dihydro-2H-pyrrolo[1,2-a]indol-1-one]
IC50 [1, 6]: 2.1 ± 0.31 µM

CS(=O)(=O)N1CC2(CC2)c2c(Cl)cccc21 [Compound 5b, 4′-Chloro-1'-(methylsulfonyl)spiro[cyclopropane-1,3′-indoline]]
IC50 [1, 6]: 1 ± 0.3 µM | MLM Stability Cli [2]: 200 µL/min/mg protein | half-life [2, 5]: 7 min

O=C1OCC2Cc3ccccc3N12 (centres unmarked) [Compound 5h, 9,9a-Dihydro-1H,3H-oxazolo[3,4-a]indol-3-one]
IC50 [1, 6]: 6.1 ± 0.7 µM

CC(=O)N1CCc2cc(C#N)ccc21 [Compound 4r, 1-Acetylindoline-5-carbonitrile]
IC50 [1, 4]: > 10 µM

CC(=O)N1CCc2ccccc21 [Compound 3a, 1-(Indolin-1-yl)ethan-1-one]
IC50 [1, 3]: 0.4 ± 0.11 µM | LE ([1]; ligand efficiency from Notum OPTS IC50): 0.75 | LLE ([1]; lipophilic ligand efficiency from Notum OPTS IC50 and clogP): 5.0 | fold more potent than 2b (Notum IC50) ([1]; vs 2b): 7 fold | MLM Stability Cli [2]: 180 µL/min/mg protein | half-life [2, 5]: 8 min

Clc1ccc2c(c1Cl)CCN2 [Compound 5n, 4,5-Dichloroindoline]
IC50 [1, 6]: 3.6 ± 0.67 µM

CC(=O)N1CCc2ccc(Cl)c(Cl)c21 [Compound 4x, 1-(6,7-Dichloroindolin-1-yl)ethan-1-one]
IC50 [1, 4]: 2.2 ± 0.6 µM

COc1ccc2c(c1)CCN2C(C)=O [Compound 4t, 1-(5-Methoxyindolin-1-yl)ethan-1-one]
IC50 [1, 4]: 0.67 ± 0.08 µM

CC(=O)N1CCc2c(C3CC3)cccc21 [Compound 4p, 1-(4-Cyclopropylindolin-1-yl)ethan-1-one]
IC50 [1, 4]: 0.29 ± 0.14 µM

CC(C)C(=O)N1CC2(CC2)c2c(Cl)cccc21 [Compound 5a, 1-(4′-Chlorospiro[cyclopropane-1,3′-indolin]-1′-yl)-2-methylpropan-1-one]
IC50 [1, 6]: 4.4 ± 0.3 µM

CC(=O)N1c2ccccc2CC1C (centres unmarked) [Compound 4a, 1-(2-Methylindolin-1-yl)ethan-1-one]
IC50 [1, 4]: 2.4 ± 1.2 µM

CC(=O)N1CCOc2c(Cl)cccc21 [Compound 5e, 1-(8-Chloro-2,3-dihydro-4H-benzo[b][1,4]oxazin-4-yl)ethan-1-one]
IC50 [1, 6]: 8.5 ± 2.1 µM

CC(=O)N(C)c1ccccc1C [Compound 3h, N-Methyl-N-(o-tolyl)acetamide]
IC50 [1, 3]: > 10 µM

CCN1CCc2c(Cl)cccc21 [Compound 5o, 4-Chloro-1-ethylindoline hydrochloride]
IC50 [1, 6]: > 10 µM

COc1cccc2c1CCN2C(C)=O [Compound 4n, 1-(4-Methoxyindolin-1-yl)ethan-1-one]
IC50 [1, 4]: 0.67 ± 0.07 µM

CC(=O)N1C(=O)Cc2ccccc21 [Compound 3j, 1-Acetylindolin-2-one]
IC50 [1, 3]: 3.2 ± 0.66 µM

CC(=O)N1CCc2cc(F)ccc21 [Compound 4s, 1-(5-Fluoroindolin-1-yl)ethan-1-one]
IC50 [1, 4]: 0.35 ± 0.04 µM

CC(=O)N1CCc2ccc(Cl)cc21 [Compound 4i, 1-(6-Chloroindolin-1-yl)ethan-1-one]
IC50 [1, 4]: 1.4 ± 0.2 µM

CC(=O)N1CCCc2ccccc21 [Compound 3c, 1-(3,4-Dihydroquinolin-1(2H)-yl)ethan-1-one]
IC50 [1, 3]: 2.5 ± 1 µM | fold decrease in Notum inhibition compared to 3a ([1]; vs 3a): 6 fold

O=C1CCC2Cc3cc(Cl)ccc3N12 (centres unmarked) [Compound 5j, 7-Chloro-1,2,9,9a-tetrahydro-3H-pyrrolo[1,2-a]indol-3-one]
IC50 [1, 6]: 1.2 ± 0.4 µM

CC(=O)N1CCSc2ccccc21 [Compound 3n, 1-(2,3-Dihydro-4H-benzo[b][1,4]thiazin-4-yl)ethan-1-one]
IC50 [1, 3]: 3.6 ± 0.1 µM

O=C1CCC2Cc3c(Cl)cccc3N12 (centres unmarked) [Compound 5k, 8-Chloro-1,2,9,9a-tetrahydro-3H-pyrrolo[1,2-a]indol-3-one]
IC50 [1, 6]: 0.49 ± 0.03 µM

CC(=O)N1CCc2cc(Cl)ccc21 [Compound 4h, 1-(5-Chloroindolin-1-yl)ethan-1-one]
IC50 [1, 4]: 0.095 ± 0.014 µM

CC(=O)N1CCc2ccccc2C1 [Compound 3e, 1-(3,4-Dihydroisoquinolin-2(1H)-yl)ethan-1-one]
IC50 [1, 3]: 8 ± 2.2 µM

CC(=O)N1CCc2c(F)cccc21 [Compound 4m, 1-(4-Fluoroindolin-1-yl)ethan-1-one]
IC50 [1, 4]: 0.093 ± 0.002 µM

CC(=O)N1Cc2ccccc2C1 [Compound 3d, 1-(Isoindolin-2-yl)ethan-1-one]
IC50 [1, 3]: 2.2 ± 0.4 µM

CC(=O)N1CC2(CCC2)c2ccccc21 [Compound 4e, 1-(Spiro[cyclobutane-1,3′-indolin]-1′-yl)ethan-1-one]
IC50 [1, 4]: 1.8 ± 1.2 µM

CC(=O)N1CCc2cc(C(F)(F)F)ccc21 [Compound 4u, 1-(5-(Trifluoromethyl)indolin-1-yl)ethan-1-one]
IC50 [1, 4]: 0.52 ± 0.05 µM

CC(=O)N1CC2(CC2)c2c1cccc2C(F)(F)F [Compound 4aa, 1-(4'-(Trifluoromethyl)spiro[cyclopropane-1,3′-indolin]-1′-yl)ethan-1-one]
IC50 [1, 4]: 0.017 ± 0.002 µM | MLM Stability Cli [2]: 670 µL/min/mg protein | half-life [2, 5]: 2 min

CC(=O)N1CC(=O)c2ccccc21 [Compound 3i, 1-Acetylindolin-3-one]
IC50 [1, 3]: 0.69 ± 0.12 µM

CC(=O)n1ccc2c(Cl)cccc21 [Compound 5c, 1-(4-Chloro-1H-indol-1-yl)ethan-1-one]
IC50 [1, 6]: 0.73 ± 0.04 µM

CC(=O)N1c2ccccc2C2(C)CC12 (centres unmarked) [Compound 4f, 1-(6b-Methyl-1a,6b-dihydrocyclopropa[b]indol-2(1H)-yl)ethan-1-one]
IC50 [1, 4]: 4.1 ± 0.8 µM

CC(=O)N1CCc2c(C)cccc21 [Compound 4k, 1-(4-Methylindolin-1-yl)ethan-1-one]
IC50 [1, 4]: 0.083 ± 0.016 µM

CC(=O)N1CCC(c2ccccc2)C1 (centres unmarked) [Compound 3f, 1-(3-Phenylpyrrolidin-1-yl)ethan-1-one]
Notum IC50 [1, 3]: inactive ^c

CC(=O)N1CC(C)c2ccccc21 (centres unmarked) [Compound 4b, 1-(3-Methylindolin-1-yl)ethan-1-one]
IC50 [1, 4]: 0.26 ± 0.08 µM | fold increase in Notum inhibition over 3a ([1]; vs 3a, more potent): 2 fold

O=C1CCCN1c1ccccc1 [Compound 3g, 1-Phenylpyrrolidin-2-one]
IC50 [1, 3]: > 10 µM

CC(=O)N1CC(C)(C)c2ccccc21 [Compound 4c, 1-(3,3-Dimethylindolin-1-yl)ethan-1-one]
IC50 [1, 4]: 1.4 ± 0.4 µM

CC(=O)N1CC2(CC2)c2cc(Cl)ccc21 [Compound 4z, 1-(5′-Chlorospiro[cyclopropane-1,3′-indolin]-1′-yl)ethan-1-one]
IC50 [1, 4]: 0.034 ± 0.01 µM | MLM Stability Cli [2]: 620 µL/min/mg protein | half-life [2, 5]: 2.2 min

CC(=O)n1ncc2ccccc21 [Compound 3k, 1-(1H-Indazol-1-yl)ethan-1-one]
IC50 [1, 3]: > 10 µM

CC(=O)N1CCc2cc(C)ccc21 [Compound 4q, 1-(5-Methylindolin-1-yl)ethan-1-one]
IC50 [1, 4]: 0.22 ± 0.02 µM

CC(=O)N1CC2(CC2)c2ccccc21 [Compound 4d, 1-(Spiro[cyclopropane-1,3′-indolin]-1′-yl)ethan-1-one]
IC50 [1, 4]: 0.061 ± 0.012 µM | MLM Stability Cli [2]: 360 µL/min/mg protein | half-life [2, 5]: 3.8 min

O=C1COCC2Cc3ccccc3N12 (centres unmarked) [Compound 5i, 10,10a-Dihydro-1H-[1,4]oxazino[4,3-a]indol-4(3H)-one]
IC50 [1, 6]: 1.6 to 10 µM

CC(=O)n1ccc2ccccc21 [Compound 3b, 1-(1H-Indol-1-yl)ethan-1-one]
IC50 [1, 3]: 5.3 ± 1.2 µM | fold decrease in Notum inhibition compared to 3a ([1]; vs 3a): 10 fold
